According to US5648366A, “Substituted pyrrolidin-3-yl-alkyl-piperidines” (Merrell Pharmaceuticals Inc., priority 1995, dated 1997):

What was measured:
[1] = system: NK2 receptor; assay: Antagonism of NKA aerosol induced respiratory effects in conscious guinea pigs; type: in vivo, guinea pig; settings: 20 min prior to NKA aerosol (0.05%); for DYSPNEA ONSET: mean and SEM
Method: ANTAGONISM OF NKA AND CAPSAICIN INDUCED R[…] IN CONSCIOUS GUINEA PIGS
In vivo experiments were performed using male Duncan Hartley guinea pigs (250-350 g). Changes in conscious breathing patterns were monitored in four animals simultaneously using modified whole body plethysmography consisting of four small plexiglass boxes each connected to a reference box via Validyne DP 45-16 differential pressure transducers. The 4 boxes were equipped with an air supply line (also used for aerosol delivery) and an exhaust air line. Supply and exhaust lines were of the same length and narrow bore and arose from a common supply chamber and vented to a common exhaust chamber. This system was used to ensure that fluctuations in supply air and atmospheric pressure would remain in phase and be eliminated from the net signal by the differential pressure transducers. The analog pressure signals were digitalized via a Data Translation DT2821 A to D board. Data were collected at a rate of 100 samples/second/animal. Each cycle of pressure change was analyzed using the following parameters: rising and falling slope determined between minimum and maximum pressures, the ratio of rising over falling slope, and the magnitude of the change between initial trough pressure and peak cycle pressure. Using these values (and observing the animals) the pressure cycles were characterized into normal breaths, forced exhalations (apparent by abdominal heaving), significant respiratory events (SREs; usually coughs, less often sneezes or gasps which were characterized by transient, extremely large pressure increases which were distinguishable from noise) and movement/noise with a PCAT 286 running a System V UNIX operating system. Dyspnea was defined as a significant, sustained increase in plethysmograph pressure which was associated with an observable shift to labored breathing in the animal.
During the course of a typical experiment in which airway responsiveness to various bronchoconstricting agents was examined, aerosols were delivered for 19 min (0.33 ml/min) using a DeVilbiss Ultraneb 99 ultrasonic nebulizer and animals monitored during this time. Prior to nebulization, 1 min of resting breathing was collected to establish a baseline pressure. […] The vehicle for nebulization of all bronchoconstrictive agents was phosphate buffered saline (pH 7.4) which elicited no r[…] itself. Putative tachykinin antagonists were administered either (i.v.) 20 min prior to onset of aerosol exposure or orally 1 hour prior to onset (to guinea pigs after an overnight fast).
Table 6 illustrates the effects of the compounds of Example 3; Example 20A; and Example 5A on r[…] induced by NKA aerosol. […] These effects were dose dependent i.e. the higher the dose of compound, the greater attenuation of NKA-mediated effects.

[2] = target: NK1 receptor (Cavia porcellus, UniProt P30547); assay: Antagonism of SP-induced plasma protein extravasation in guinea pig trachea; type: in vivo; design: SP-induced plasma protein extravasation in guinea pig trachea; from tissue; host or cells: living guinea pig; trachea and primary bronchi; settings: i.v.
Method: ANTAGONISM OF SP-INDUCED PLASMA PROTEIN EXTRAVASATION IN GUINEA PIG TRACHEA
SP-induced protein leakage through postcapillary venules was assessed by measuring Evans Blue dye accumulation in guinea pig trachea. Animals were anesthetized with pentobarbital then injected with Evans Blue dye (20 mg/kg, i.v., prepared in 0.9% NaCl solution). One minute after dye administration, the antagonist was administered (i.v.) followed by SP (0.3 nmole/kg, i.v.) and, after 5 min, excess dye removed from the circulation by transcardiac perfusion with 50 ml 0.9% NaCl solution. The trachea and primary bronchi were removed, blotted dry and weighed. Dye quantitation was performed spectrophotometrically ([…]) after extracting tissues in formamide for 24 hr at 50° C. Values were subtracted from background (dye only, no agonist). ED50 (dose of compound which inhibits SP-induced plasma protein extravasation by 50%) was calculated from linear regression analysis.

[3] = target: T1, human jejunal NK2 receptor (Homo sapiens, UniProt P21452); assay: Antagonism of iodinated tachykinin (125I-neurokinin A) binding to NK2 receptor in HSKR-1 cells
T1 construct: expressed in transfected cells; host or cells: HSKR-1 cells (mouse 3T3 fibroblasts)
T1 sequence (P21452 1-398): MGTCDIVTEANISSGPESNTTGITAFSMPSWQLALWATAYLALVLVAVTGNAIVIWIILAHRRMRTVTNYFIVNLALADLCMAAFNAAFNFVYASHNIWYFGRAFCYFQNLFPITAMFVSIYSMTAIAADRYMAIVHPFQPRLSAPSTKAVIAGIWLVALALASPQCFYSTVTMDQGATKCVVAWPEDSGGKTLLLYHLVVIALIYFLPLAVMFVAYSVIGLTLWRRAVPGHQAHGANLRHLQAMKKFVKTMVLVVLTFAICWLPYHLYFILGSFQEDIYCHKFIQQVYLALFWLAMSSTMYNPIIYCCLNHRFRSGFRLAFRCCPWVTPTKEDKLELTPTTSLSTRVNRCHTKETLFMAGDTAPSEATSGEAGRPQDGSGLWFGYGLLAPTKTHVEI
Method: ANTAGONISM OF IODINATED TACHYKININ BINDING TO NK1 AND NK2 RECEPTORS BY PUTATIVE ANTAGONISTS
The NK1 receptor affinity of proposed tachykinin antagonists was evaluated in guinea pig lungs (Keystone Biologicals, Cleveland, Ohio), affinity for the NK2 receptor evaluated in HSKR-1 cells (which are mouse 3T3 fibroblasts expressing the human jejunal NK2 receptor) and NK-3 receptor affinity was evaluated in freshly collected guinea pig cerebral cortex. Tissues or cells were homogenized with a Polytron in 15 volumes of 50 mM Tris-HCl buffer (pH 7.4, 4° C.) and centrifuged. The pellet was resuspended in Tris-HCl buffer and was centrifuged; the pellet was washed twice by resuspension. The final pellet was resuspended at a concentration of 40 mg/ml for tissues (guinea pig lung and cerebral cortex) and 20 mg/ml for cells in incubation buffer and remained at room temperature for at least 15 min prior to use. […] Filter bound radioactivity was quantitated in a gamma counter. […] Specific binding was calculated by subtracting nonspecific binding from total binding. Competition of iodinated SP, NKA, or eledoisin binding by test compounds or standards was expressed as a percentage of this maximum competition. […]

NK1 receptor, sequence (P30547 whole entry): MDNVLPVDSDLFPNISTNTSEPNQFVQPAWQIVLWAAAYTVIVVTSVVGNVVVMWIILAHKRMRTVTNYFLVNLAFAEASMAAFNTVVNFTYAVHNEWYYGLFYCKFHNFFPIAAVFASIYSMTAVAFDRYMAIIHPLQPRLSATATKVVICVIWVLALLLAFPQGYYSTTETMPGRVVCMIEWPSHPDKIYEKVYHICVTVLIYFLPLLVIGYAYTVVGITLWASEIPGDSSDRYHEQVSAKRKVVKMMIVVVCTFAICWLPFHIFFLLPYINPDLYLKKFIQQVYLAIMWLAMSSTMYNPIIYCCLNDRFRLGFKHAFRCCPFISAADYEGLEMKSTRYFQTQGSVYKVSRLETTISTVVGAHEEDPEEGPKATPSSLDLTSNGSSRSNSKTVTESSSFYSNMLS

Q: Which “DYSPNEA INCIDENCE” value ([1]; 5 mg/kg) does the source give for `COc1cc(C(=O)N2CCC(CCN3CCC(C(N)=O)(c4ccccc4)CC3)(c3ccc(Cl)c(Cl)c3)C2)cc(OC)c1OC` (stereo not shown) [Example 3, 1-[2-[3-(3,4-dichloro-phenyl)-1-(3,4,5-trimethoxy-benzoyl)-pyrrolidin-3-yl]-ethyl]-4-phenyl-piperidine-4-carboxylic acid amide] here?
A: 86%

Q: And the “DYSPNEA ONSET” value ([1]; 5 mg/kg)?
A: 394 ± 32 s

Q: What about the “DYSPNEA INCIDENCE” value ([1]; 10 mg/kg) of the same molecule?
A: 60%

Q: And the “DYSPNEA ONSET” value ([1]; 10 mg/kg)?
A: 801 ± 104 s

Q: And the “antagonism of SP-induced plasma protein extravasation (in words, FIG. 2)” value [2]?
A: dose related antagonism

Q: And the “relative potency as NK-1 receptor antagonists (in words)” value ([2]; Example 3 versus Example 20A)?
A: equipotent

Q: What about the “affinity for NK2 receptors (in words)” value [3] of the same molecule?
A: high affinity
